Laboratory results: patent US5461057A, “Hydro-ethano-indeno-pyridines” (priority 1994, dated 1995)
Counter-ions that a name gives are not always drawn.

Key:
[1] = Calcein cytotoxicity assay; format: cell-based; conditions: human, lox melanoma cells; 2 hours, calcein AM assay; read-out: 2 Hr Tox LD50
Description: LOX human melanoma cells were detached from tissue culture flasks with RPMI medium containing 0.2M urea and 10 mM EDTA, and 0.18 ml of cells were added to each well to a final cell concentration of 5×10^4 cells/well. 20 μl of 10× compound was added to the wells prior to cell addition. Cells were incubated with the compound at 37° C. for 1 hour or 5 hour as indicated. Calcein AM in DPBS (0.02 ml of 5 μM) was added to each well, and the plates were incubated for an additional 1 hour at room temperature. Viable cells were quantitated by reading the fluorescence on a Cytofluor 2300 fluorescent plate reader at 485 nm excitation and 530 nm emission.

[2] = tested on: LOX human melanoma cell adhesion to polylysine; experiment: LOX melanoma cell adhesion to polylysine; format: cell-based; conditions: read-out: Poly Lys IC50
Description: (§1) Adhesion assays were run essentially as described previously (Pai et al., J. Biomed. Res. 2: 53, 1992). 96-well plates were coated with human fibronectin (140 ng/well), human vitronectin (75 ng/well), human collagen I (100 ng/well), human collagen IV (100 ng/well), human fibrinogen (1 μg/well), murine laminin (600 ng/well), or polylysine, and incubated overnight in a humidified 37° C. incubator. Excess fibronectin or other substrate was then removed and 0.2 ml of 2 mg/ml bovine serum albumin (BSA)in Dulbecco's phosphate-buffered saline (DPBS) was added to each well, incubated for 2 hours at 37° C., and removed. LOX human melanoma cells, M27 murine lung carcinoma cells or B16F10 mouse melanoma cells were detached from tissue culture flasks with RPMI medium containing 0.2M urea and 10 mM EDTA, and 0.18 ml of cells were added to each well to a final cell concentration of 1×10^5 cells/well. For inhibition studies 20 μl of 10× compound was added to the wells prior to cell addition. Cells were allowed to adhere for 1 hour at 37° C. The wells were then gently washed twice with 0.2 ml DPBS. The fluorescent dye calcein AM (Molecular Probes, Eugene Oreg.) in DPBS (0.1 ml of 1 μM) was added to each well, and the plates were incubated for 1 hour at room temperature. Adherent cells were quantitated by reading the fluorescence on a Cytofluor 2300 fluorescent plate reader (Millipore) at 485 nm excitation and 530 nm emission.

[3] = tested on: LOX human melanoma cell adhesion to human fibronectin; experiment: LOX melanoma cell adhesion to fibronectin; format: cell-based; conditions: Homo sapiens, LOX; for inhibition at 10 µM: read-out: % Inhibition at 10 μM; for inhibition at 50 µM: read-out: % Inhibition at 50 μM; for IC50: Table 4, 1 hour adhesion, read-out: LOX FN IC50
Description: as §1
LOX FN-IC50 value for inhibition of adhesion of LOX human melanoma cells to fibronectin coated on a plastic surface.

pulmonary resistance = experiment: Pulmonary Resistance in the Anesthetized Rat; format: in vivo; conditions: 0.5 mpk, i.v., mean of 5 animals, % decrease in pre-drug baseline resistance; for inhibition in vivo at 0.5 mg/kg: Rattus norvegicus, iv, read-out: Pulmonary Resistance in Rats, % Inhibition
Description: Rats (400-500 g) anesthetized with dialurethane were surgically prepared with tracheal and esophageal catheters. These catheters were connected to pressure transducers for recording of air flow, tracheal and esophageal pressures. These pressures formed the basis for measurement of pulmonary resistance. Inhibition of pulmonary resistance is a reflection of bronchodilation.
All compounds were tested i. v. in 5 separate animals. All data are expressed in % decrease in the pre-drug baseline resistance and each number given is the mean of the 5 animals tested.
The model is sensitive to bronchodilator activity.
Further information relating this test can be obtained from the following publications which are hereby incorporated by reference: Comroe et al, J. Appl. Physio. 4:439-44 (1959); Dungan et al J. Pharmacol. Exp. Therap. 164:290-301(1968); and Mead, J. et al. J. Appl. Physio. 5:779-796 (1953).

[4] = tested on: histamine-induced dyspnea; experiment: Bronchodilator (in vivo) Guinea Pig Dyspnea; conditions: oral, one hour before histamine challenge
Description: Unanesthetized guinea pigs (250-350 g), fasted overnight were placed in individual closed aerosol chambers which were connected to a Monoghan Ultrasonic nebulizer. The nebulizer can deliver an ultrasonic fog of uniform particles in a range of 1-8 microns. A 0.1% solution of histamine is aerosolized into the chambers causing the guinea pigs to develop dyspnea. The test drug was given orally one hour before the histamine challenge and the onset of dyspnea was recorded. Saline control animals developed dyspnea within 90-120 seconds of aerosol exposure. […] The data was expressed as the number tested over the number survived. The model was sensitive to bronchodilator and H1 antihistamine activity. Further information relating this test can be obtained from the following two publications which are hereby incorporated by reference: Dungan, K. W. and Lish, P. M. J Allergy 32:139-151 (1961). and Lish, P. M., Robbins, S. I. and Petres E. L. J. Pharmacol. Exp. Therap. 153 L 1538 (1966 ).

metrazole = experiment: Anti-metrazole test in mice; format: in vivo, mouse; conditions: Mus musculus, read-out: MTZ ED50
Description: The anti-metrazole test in mice was carried out as described in Everett et al, J. Pharmacol. Exp. Therap. 81:402-407 (1944); which is hereby incorporated by reference.
(§2) The results for this test are given below as ED50's in the units of mg/kg.

TBZ-induced ptosis = experiment: Effects on tetrabenazine (TBZ)-induced ptosis in mice; format: in vivo, mouse; conditions: for ED50: Mus musculus, po
From the text: Clinically active antidepressant drugs are known to block TBZ-induced ptosis in mice (See Psychosomatic Medicine, Nodine and Moyer, Eds. Lea and Febiger, Philadelphia, 1962, pp 683-90, which is hereby incorporated by reference). Activity in this test is used to predict anti-depressant activity in man.
The procedure for the TBZ-Induced Ptosis Test in Mice is set forth in Psychosomatic Medicine, Nodine and Moyer, Eds. Lea and Febiger, which is hereby incorporated by reference and in PCT/US91/06705, filed 20 Sep. 1991, which is mentioned above.
The results for this test are given below as ED50 's in the units of mg/kg.
TBZ refers to the test of effects on tetrabenazine induced ptosis in mice, p.o.;

methamphetamine toxicity = experiment: Methamphetamine toxicity test in mice; format: in vivo; conditions: Mus musculus, read-out: METHA ED50
Description: The methamphetamine toxicity test in mice was carried out as described in Burn et al, Arch. Int. Pharmacodyn 113:290-295, (1958); and Coscia et al, Arzneim-Forsch (Drug Research) 25:1436-1442, (1975); which are hereby incorporated by reference.
as §2
METHA refers to the methamphetamine toxicity test in mice;

[5] = tested on: acetic acid-induced writhing; experiment: Acetic Acid Writhing Test in Mice; format: in vivo, mouse; conditions: Mus musculus, po, read-out: WRITH ED50
From the text: The blockade of writhing induced by the intraperitoneal injection of acetic acid is an established experimental animal model for the screening of antinociceptive drugs (drugs which prevent the appreciation or transmission of pain sensations).
The procedure for the Acetic Acid Writhing Test in Mice is set forth in Hendershot et al, J. Pharmacol. Exp. Therap. 125:237, (1959); Koster et al., Fed. Proc. 18:412, (1959); and international application PCT/US91/06705, filed 20 Sep. 1991, which are hereby incorporated by reference.
The results for this test are given below in the units of mg/kg which is also abbreviated in this specification as mpk. The results for this test are given as effective doses (ED50 's).

[6] = Cavia porcellus, 1 h, 100 mg/kg, read-out: DYSP survivors (converted)

SMILES | CC50 at 2 h [1] | IC50 [2] | inhibition at 10 µM [3] | inhibition at 50 µM [3] | IC50 [3] | inhibition in vivo at 0.5 mg/kg (pulmonary resistance) | responders at 100 mg/kg [4, 6] | ED50 (metrazole) | ED50 (TBZ-induced ptosis) | observation in TBZ test (footnote c) (TBZ-induced ptosis; p.o., at the dose of 30 marked c) | Pulmonary Resistance in Rats, % Inhibition (pulmonary resistance) | ED50 (methamphetamine toxicity) | DYSP survivors ([4]; 30 mg/kg) | DYSP survivors ([4]; 60 mg/kg) | DYSP survivors ([4]; 100 mg/kg) | ED50 [5] | DYSP survivors ([4]; 50 mg/kg) | responders at 50 mg/kg ([4]; Cavia porcellus, 1 h, 50 mg/kg, read-out: DYSP survivors (converted))
CN1C2CCC1C1C(=C(c3cccc(C(F)(F)F)c3)c3ccccc31)C2 (stereo not drawn) [L, 1 (SR):3(RS)-1,3-Ethano-2-methyl-5-(m-trifluoromethylphenyl)-1,3,4,9b-tetrahydro-H-indeno[1,2-c] pyridine. HCl 0.75H2 O.] | 29.7 µM | 80.4 µM | 23.7% | 100% | 20 µM | 14% | 100% | – | – | – | – | – | – | – | – | – | – | –
CN1C2CCC1C1C(=C(c3ccc(F)cc3)c3ccccc31)C2 (stereo not shown) [K] | 116 µM | 71.6 µM | 27.6% | 100% | 15.5 µM | – | – | > 30 mg/kg | > 30 mg/kg | animals were ataxic and depressed at this dose | 34% | 14.9 mg/kg | 0/3 | 1/3 | 3/3 | – | – | –
CN1C2CCC1C1C(=C(c3ccc(F)cc3)c3cc(F)ccc31)C2 (stereo not shown) [Compound H] | 36.9 µM | 23.7 µM | 37.5% | 101% | 6.5 µM | – | – | – | – | – | 20% | – | – | – | 1/3 | – | – | –
COc1ccc2c(c1)C(c1ccccc1)C1=C2C2CCC(C1)N2 (stereo not shown) [FF] | – | – | – | – | – | – | – | > 30 mg/kg | > 30 mg/kg | – | 2% | > 30 mg/kg | – | – | 0/3 | > 30 mg/kg | – | –
COc1ccc2c(c1)C1=C(CC3CCC1N3C)C2c1ccccc1 (stereo not shown) [Z] | > 250 µM | > 250 µM | -27.6% | 67% | 28.1 µM | – | – | > 30 mg/kg | > 30 mg/kg | – | – | > 30 mg/kg | – | – | 0/3 | 17.3 mg/kg | – | –
COc1ccc(C2=C3CC4CCC(C3c3ccccc32)N4C)cc1 (stereo not shown) [R] | 138 µM | 112 µM | -27.3% | 97.1% | 15 µM | – | – | > 30 mg/kg | 17.3 mg/kg | – | 26% | > 30 mg/kg | – | – | 1/3 | > 30 mg/kg | – | –
COc1ccc2c(c1)C(c1ccccc1)=C1CC3CCC(C12)N3C (stereo not shown) [V] | – | – | – | – | – | – | – | – | > 30 mg/kg | – | – | – | – | – | 0/3 | – | – | –
CN1C2CCC1C1C(=C(c3cccc(F)c3)c3ccc(F)cc31)C2 (stereo not shown) [P] | 64.3 µM | 297 µM | -2.4% | 99.8% | 11.7 µM | – | – | – | – | – | 12% | – | – | – | – | – | 0/3 | –
COc1ccc(C2(O)c3ccccc3C3C4CCC(CC32)N4)cc1 (stereo not shown) [JJ] | – | – | 10.1% | 33.7% | – | – | 66.7% | > 30 mg/kg | > 30 mg/kg | – | – | > 30 mg/kg | – | – | – | > 30 mg/kg | – | 33.3%
COc1ccc2c(c1)C1C3CCC(CC1C2(O)c1ccccc1)N3C (stereo not shown) [UU] | – | – | 10.3% | 15.9% | – | 2% | – | > 30 mg/kg | > 30 mg/kg | – | – | > 30 mg/kg | – | – | – | 17.3 mg/kg | – | –
CN1C2CCC1C1C(=C(c3ccc(Cl)c(C(F)(F)F)c3)c3ccccc31)C2 (stereo not shown) [Compound N] | 23.8 µM | 25.3 µM | 7% | 101% | 19.4 µM | – | – | – | – | – | 33% | – | – | – | 0/3 | – | – | –
